# Experimental data: patent publication US8518958B2, “Pyrido [2,3-D] pyrimidines and their use as kinase inhibitors” (Forma Therapeutics, Inc., priority 2006, dated 2013)
# Key:
# [1] = system: HT-29 tumor cells; experiment: Anti-proliferative activity, SRB assay; assay type: cell-based, human; conditions: Homo sapiens, HT-29, 72 h, 72 hours exposure, read-out: CELLULAR IC50 HT-29
# Method: We observed the surprising finding that compounds of the invention were useful in inhibiting proliferation of HT-29 tumor cells (see Table 3).
# 3,000-15,000 cells/well were exposed to the test compounds at various concentrations appropriate to determine an IC50, for 72 hours, and cell proliferation was measured using the SRB assay according to Shekan et al (J Natl Cancer Inst (1990) 82, 1107-112) in order to estimate the IC50 values shown in Table 3. Briefly, cells were plated in 96 well dishes 24 hours prior to compound addition. The assay was terminated with the addition of cold TCA to a final concentration of 10% and the plates were incubated for one hour at 4° C. The plates were then washed 5 times with water and 100 μl of a Sulforhodamine B solution (4%) was added to each well. The plate was then incubated for 10 minutes at room temperature before removal of unbound dye by washing with 1% acetic acid. The bound dye was solubilized with 10 mM Trizma base and the absorbance read at OD570. Inhibitory activity of the compounds was calculated as % inhibition of cell proliferation compared to cells treated with the solvent (DMSO).
# [2] = target: B-Raf delta1-415 (Homo sapiens, UniProt P15056); experiment: B-Raf kinase inhibition (MAPH filter plate, 33P-ATP, MEK1 substrate); conditions: read-out: Biochemical IC50 B-Raf
# Description: We characterized the in vitro inhibitory activity against protein kinases of compounds of the present invention by determining their IC50 values (see Table 2).
# Kinase: B-Raf delta1-415 (e.g., Upstate Cat. No. 14-530)
# Reaction Temperature: room temperature
# Assay Plate: 96 well U bottom plate (Greiner, 650161)
# MultiScreen-PH Plate: 96 well MAPH Filter Plates (Millipore, MAPHNOB50)
# Filter Washing Solution: 0.75% H3PO4
# Szintilation Liquid: Supermix Liquid Szintillator (PerkinElmer, 1200-439)
# Negative Control (C−): 100 mM EDTA, no Inhibitor
# Positive Control (C+): no Inhibitor
# Reaction Buffer: 20 mM Mops, pH 7.0 • 10 mM MgCl2 • 0.4 mM MnCl2 • 100 mM NaCl • 1 mM DTT • 0.01% NP40
# Final Assay Concentrations:
# Kinase: Kinase conc. yielding 50% substrate turnover as determined in titration experiment.
# Adenosine 5′-[γ-^33P]triphosphate: 12.5 μCi/ml (Amersham Biosciences, BF1000)
# Pipetting Sequence: • 1) Add 10 μl 4-fold concentrated substrate in 3-fold concentrated reaction buffer to each well of assay plate • 2) Add 10 μl 4-fold concentrated inhibitor in 4% DMSO in H2O to each well except to C− and C+ wells (starting point: final inhibitor concentration 10 μM; IC50 determination based on dilution series) • 3) Add 10 μl 4% DMSO in H2O to C− and C+ wells • 4) Add 10 μl 500 mM EDTA in H2O to C− wells • 5) Add 10 μl 50 μCi/ml adenosine 5′-[γ-^33P]triphosphate in H2O+4-fold cold ATP to each well • 6) Add 10 μl 4-fold concentrated kinase in reaction buffer to each well • 7) Incubate 1 hr at room temperature • 8) Add 10 μl 50 mM EDTA in H2O to each well except to C− wells • 9) Prepare MAPH plates by adding 200 μl 0.75% H3PO4 to each well • 10) Exhaust 0.75% H3PO4 using Millipore vacuum station • 11) Add 60 μl 0.75% H3PO4 to each well of MAPH filter plate • 12) Transfer 30 μl sample per well from assay plate to corresponding well of MAPH filter plate • 13) Incubate 30 min at room temperature • 14) Wash each well of MAPH filter plates 3× with 200 μl 0.75% H3PO4 using Millipore vacuum station • 15) Add 20 μl scintillation liquid to each well of MAPH filter plate • 16) Seal MAPH filter plate • 17) Store MAPH filter plate 30 min in darkness • 18) Quantify radioactivity using scintillation counter (MicroBeta, Perkin-Elmer)
# B-Raf delta1-415, sequence (P15056 416-766): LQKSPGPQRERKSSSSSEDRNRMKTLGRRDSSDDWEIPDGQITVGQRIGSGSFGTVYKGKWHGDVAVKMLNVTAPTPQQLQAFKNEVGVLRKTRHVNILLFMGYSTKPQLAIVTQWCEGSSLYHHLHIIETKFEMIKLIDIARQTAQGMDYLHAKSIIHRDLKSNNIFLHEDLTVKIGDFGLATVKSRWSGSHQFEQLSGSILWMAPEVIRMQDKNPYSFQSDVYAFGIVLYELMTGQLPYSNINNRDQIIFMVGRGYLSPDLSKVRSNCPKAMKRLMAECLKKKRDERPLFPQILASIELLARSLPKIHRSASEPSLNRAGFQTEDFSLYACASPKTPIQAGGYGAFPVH
IC50 [1] [nM],IC50 [2] [nM],SMILES
< 1000,< 500,"COn1c(=O)c(-c2c(Cl)cccc2Cl)cc2cnc(Nc3ccc(Cn4cccn4)cc3)nc21 [Compound 124, 6-(2,6-dichlorophenyl)-8-methoxy-2-(4-(pyrazol-1-ylmethyl)phenyl)-amino-pyrido[2,3-d]pyrimidin-7-one]"
< 1000,< 500,"O=c1c(-c2c(Cl)cccc2Cl)cc2cnc(Nc3ccccc3)nc2n1OCc1cccnc1 [Compound 165, 6-(2,6-Dichlorophenyl)-2-phenylamino-8-(pyrid-3-ylmethyl)oxy-pyrido[2,3-d]pyrimidin-7-one]"
< 1000,< 500,"COn1c(=O)c(-c2c(Cl)cccc2Cl)cc2cnc(Nc3ccc(OCCN4CCCC4)cc3)nc21 [Compound 91, 6-(2,6-Dichlorophenyl)-8-methoxy-2-(4-(2-pyrrolidinoethyl)oxyphenyl) amino-pyrido[2,3-d]pyrimidin-7-one]"
< 1000,< 100,O=c1c(-c2c(F)cccc2Cl)cc2cnc(Nc3ccc(N4CCOCC4)cc3)nc2n1OC[C@@H]1CCNC1 [Compound 149]
< 1000,< 1000,"CO/N=C/c1ccc(Nc2ncc3cc(-c4c(Cl)cccc4Cl)c(=O)n(OC)c3n2)cc1 [Compound 209, 2-(4-(methoximino)methylphenyl)-amino-6-(2,6-dichlorophenyl)-8-methoxy-pyrido[2,3-d]pyrimidin-7-one]"
< 1000,< 100,"COn1c(=O)c(-c2c(Cl)cccc2Cl)cc2cnc(Nc3ccc(CNS(C)(=O)=O)cc3)nc21 [Compound 120, 6-(2,6-Dichlorophenyl)-8-methoxy-2-(4-methylsulfonylaminomethyl-phenyl)-amino-pyrido[2,3-d]pyrimidin-7-one]"
< 10000,< 500,"COn1c(=O)c(-c2c(Cl)cccc2Cl)cc2cnc(Nc3ccon3)nc21 [Compound 85, 6-(2,6-Dichlorophenyl)-2-(isoxazol-3-yl)-amino-8-methoxy-pyrido[2,3-d]pyrimidin-7-one]"
< 1000,< 500,"COn1c(=O)c(-c2c(Cl)cccc2Cl)cc2cnc(Nc3ccc(Cn4cncn4)cc3)nc21 [Compound 104, 6-(2,6-Dichlorophenyl)-8-methoxy-2-(4-(1,2,4-triazol-1-yl)methylphenyl)-amino-pyrido[2,3-d]pyrimidin-7-one]"
< 1000,< 500,"CCN(CC)Cc1ccc(Nc2ncc3cc(-c4c(Cl)cccc4Cl)c(=O)n(OC)c3n2)cc1 [Compound 167, 6-(2,6-Dichlorophenyl)-2-(4-diethylaminomethylphenyl)-amino-8-methoxy-pyrido[2,3-d]pyrimidin-7-one]"
< 1000,< 100,"COn1c(=O)c(-c2c(F)cccc2Cl)cc2cnc(Nc3cc(C(=O)N(C)CCO)n(C)c3)nc21 [Compound 193, 6-(2-Chloro-6-fluorophenyl)-2-(5-N-(2-hydroxyethyl)-N-methyl-aminocarbonyl-1-methyl-pyrrol-3-yl)-amino-8-methoxy-pyrido[2,3-d]pyrimidin-7-one]"
< 1000,< 100,"COn1c(=O)c(-c2c(Cl)cccc2Cl)cc2cnc(Nc3ccc(N4CCNCC4)cc3)nc21 [Compound 184, 6-(2,6-Dichlorophenyl)-8-methoxy-2-(4-piperazinophenyl)-amino-pyrido[2,3-d]pyrimidin-7-one]"
> 10000,> 1000,"C/C=C/C(=O)Nc1ncc2cc(-c3c(C)cccc3C)c(=O)n(OC)c2n1 [Compound 96, 2-But-2-enoylamino-6-(2,6-dimethylphenyl)-8-methoxy-pyrido[2,3-d]pyrimidin-7-one]"
> 10000,> 10000,CC(C)On1c(=O)c(-c2ccccc2Cl)cc2cnc(Nc3ccccc3)nc21 [Compound 65]
< 1000,< 500,COn1c(=O)c(-c2c(Cl)cccc2Cl)cc2cnc(Nc3cc(C(=O)NCCCN4CCCC4)n(C)c3)nc21 [Compound 95]
